According to patent publication US20130029983A1, “AMINOTHIENOPYRIDAZINE INHIBITORS OF TAU ASSEMBLY” (priority 2009, published 2013):
Where two headings read alike, the source gives them in different places.

What was measured:
[1] = target: T1, K18PL tau (Homo sapiens, UniProt P10636, P618L); assay: Heparin-induced K18PL tau fibrillization assay monitored by ThT fluorescence; type: biochemical; conditions: for Emax: read-out: K18PL (ThT) maximal percent inhibition achieved in the assay
T1 construct: (K18PL; amino acids 244-369); made in house
Method in brief: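 K18PL (30 μM stock, with 0.24 μM Alexa Red-labeled K18PL) plus 40 μM heparin and compound, fibrillized 6 h at 37 °C. Fibrils read by ThT (12.5 μM final, in 100 mM glycine pH 8.5, 1 h RT), ex 450/em 510 nm. Percent inhibition scaled between DMSO wells and non-fibrillizing K18 KD control wells.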

[2] = Full PK analysis and oral administration, brain and plasma levels; type: in vivo, mice; conditions: for half-life: 2 mg/kg, full PK analysis, FIG. 6A
Description: FIG. 6. (A) Brain and plasma level of F4 (CNDR-51362) after i.v. administration at 2 mg/Kg; (B) Brain and plasma level of F4 (CNDR-51362) after oral administration at 5 mg/Kg; (C) Brain and plasma level of F3 (CNDR-51349) after oral administration at 5 mg/Kg
Test compounds underwent preliminary evaluations of brain penetration, in which 5 mg/Kg of each compound was administered intraperitoneally (i.p.) to a group of three normal mice; drug levels in brain and plasma were determined at a single time-point (1 h) by LC-MS/MS using pre-validated calibration curves. […] However, both esters appeared to have relatively short half-lives in plasma, as indicated by the limited amount of parent drug detected after 1 h from administration of the compounds. […] CNDR-51362 was selected for full PK analysis in which brain and plasma drug levels were determined at six time points (i.e., 30 min, 1 h, 2 h, 4 h, 8 h, and 16 h). The results from this experiment, illustrated in FIG. 6A, confirmed that the total B/P exposure ratio over 16 h is 1.6. […] Finally, in order to investigate the potential for ATPZ congeners to be orally administered, we evaluated brain and plasma level of CNDR-51362 and CNDR-51349 after oral administration of 5 mg/Kg.
Brain tissue was homogenized in 10 mM ammonium acetate, pH 5.7 (1:2; w/v) using a handheld sonic homogenizer. Plasma was obtained from blood that was collected into a 1.5 mL tube containing 0.5M EDTA solution and subjected to centrifugation for 10 min. at 4500 g at 4° C. Aliquots (50 μL) of brain homogenate or plasma were mixed with 0.2 mL of acetonitrile, centrifuged at 15,000 g, and the resulting supernatants were used for subsequent LC-MS/MS analysis. The LC-MS/MS system was comprised of an Aquity HPLC and a TQ MS that was controlled using MassLynx software (Waters Corporation, Milford, Mass., USA). Compounds were detected using multiple reaction monitoring (MRM) of their specific collision-induced ion transitions. Samples (5 μL) were separated on an Aquity BEH C18 column (1.7 μm, 2.1×50 mm) at 35° C. Operation was in positive electrospray ionization mode, with mobile phase A of 0.1% (v/v) formic acid, and B of either acetonitrile or methanol with 0.1% (v/v) formic acid at a flow rate of 0.6 mL/min using a gradient from 5% to 95% B over two min., followed by wash and re-equilibration steps. The MS was operated with a desolvation temperature of 450° C. and a source temperature of 150° C. Desolvation and source nitrogen gas flows were 900 L/hr and 50 L/hr, respectively. Source and MS/MS voltages were optimized for each compound using the MassLynx auto tune utility. Standard curves were generated for each compound from brain homogenate and plasma samples that had compound added at 4, 40, 400 and 4000 ng/mL and extracted as above. Peak areas were plotted against concentration and a 1/x weighted linear regression curve was used to quantify the tissue-derived samples using the average peak area from triplicate injections.

[3] = target: T2, Aβ(1-42) (Homo sapiens, UniProt P05067); assay: Aβ(1-42) fibrillization assay (ThT); type: biochemical; conditions: Table 3; highest tested concentration (80 μM); read-out: Aβ42 ThT Assay % Inhib.
T2 construct: Synthetic Aβ(1-42) peptide (rPeptide); purchased rPeptide

[4] = Table 5, read-out: K18PL (ThT) IC50 value

T1 sequence (P10636 561-686 P618L): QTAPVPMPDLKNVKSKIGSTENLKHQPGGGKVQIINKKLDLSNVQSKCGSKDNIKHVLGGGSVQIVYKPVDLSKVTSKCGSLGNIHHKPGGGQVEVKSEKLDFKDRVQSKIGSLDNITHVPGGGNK
T2 sequence (P05067 672-713 limits assumed): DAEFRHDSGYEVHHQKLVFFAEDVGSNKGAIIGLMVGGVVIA

IC50 [1, 4] [µM]	Emax ([1]; Table 5) [%]	Kp at 16 h ([2]; mouse, brain and plasma, iv, over 16 h, six time points, FIG. 6A (i.v. 2 mg/Kg), read-out: Total brain-to-plasma (B/P) AUC exposure ratio)	half-life ([2]; mouse, brain, iv, read-out: Elimination half-life in the brain (converted)) [h]	half-life ([2]; mouse, plasma, iv, read-out: Elimination half-life in plasma (converted)) [h]	bioavailability ([2]; mouse, plasma AUC after oral 5 mg/Kg versus i.v. 2 mg/Kg) [%]	Brain concentration after oral administration ([2]; oral 5 mg/Kg, FIGS. 6B and 6C, 5 mg/kg)	melting point [°C]	inhibition at 80 µM ([1]; Table 3, highest tested concentration (80 μM), read-out: Tau ThT Assay % Inhib.) [%]	IC50 ([1]; Table 3, logarithm of IC50, K18PL tau ThT fluorescence inhibition, NC = not calculated due to insufficient activity, read-out: Tau ThT Assay Log IC50 (converted)) [µM]	inhibition at 80 µM [3] [%]	SMILES
4.6	87	1.6	~9.5	~7.4	~64	significant brain concentrations					Nc1scc2c(C(=O)NC3CC3)nn(-c3ccc(Cl)cc3)c(=O)c12 [CNDR-51362, 5-Amino-3-(4-chlorophenyl)-N-cyclopropyl-4-oxo-3,4-dihydrothieno[3,4-d]pyridazine-1-carboxamide]
3.1	71						189 to 191	84	3.98	41	CCOC(=O)c1nn(-c2ccc(Cl)cc2)c(=O)c2c(N)scc12 [Compound 17, Ethyl 5-amino-3-(4-chlorophenyl)-4-oxo-3,4-dihydrothieno[3,4-d]pyridazine-1-carboxylate]
